The subject of data set [1] is HEK293. In words: Cytotoxic activity in HEK293 cells assessed as reduction in cell viability incubated for 72 hrs by MTT assay. Format: cell-based. Conditions: Homo sapiens, HEK293, 72 h. A general note: Tetrazolium assays rely on reduction of a dye to a coloured formazan, in cell work by metabolically active cells.
Data set [2] has as its system COLO357. In words: Cytotoxic activity in human Colo-357 cells assessed as reduction in cell viability incubated for 72 hrs by MTT assay. The settings on record: COLO357, 72 h. Type of data set: functional, cell-based.
The next data set relates to MIA PaCa-2. In words: Cytotoxic activity in human MIAPaCa2 cells assessed as reduction in cell viability incubated for 72 hrs by MTT assay. Format: functional, cell-based. The settings on record: MIA PaCa-2, 72 h.
In data set [3] the test system is COLO357. In words: Induction of apoptosis in human Colo-357 cells at 5 uM incubated for 72 hrs by propidium iodide staining based flow cytometry (reference value: 12.4%). Type of data set: functional. Background: A flow cytometer gives signals particle by particle.
The subject of data set [4] is COLO357. In words: Induction of cell cycle arrest in human Colo-357 cells assessed as accumulation at G phase at 5 uM incubated for 72 hrs by propidium iodide staining based flow cytometry (reference value: 56.6%). Format: functional.
Data set [5] concerns COLO357. In words: Induction of cell cycle arrest in human Colo-357 cells assessed as accumulation at G2/M phase at 5 uM incubated for 72 hrs by propidium iodide staining based flow cytometry (reference value: 31%). Format: functional.
The subject of data set [6] is COLO357. Description: Induction of cell cycle arrest in human Colo-357 cells assessed as accumulation at […] phase at 5 uM incubated for 72 hrs by propidium iodide staining based flow cytometry (reference value: 1.8%). Type of data set: functional.
The species entered for data set [7] is Homo sapiens. In words: Inhibition of beta tubulin assembly in human Colo-357 cells at 5 uM incubated for 24 hrs by anti-tubulin antibody based confocal microscopy. Format: cell-based.
The test system of data set [8] is COLO357. In words: Growth inhibition of human Colo-357 cells incubated for 72 hrs by MTT assay. Format: functional.
A short description of data set [9]: Gastrointestinal toxicity in human HT-29 cells assessed as effect on EPR at 5 uM incubated for 3 hrs by flow cytometry. Format: cell-based. Conditions: ht-29, 3 h.
The nature of data set [10]: Gastrointestinal toxicity in human HT-29 cells assessed as effect on golgi apparatus at 5 uM incubated for 3 hrs by flow cytometry. Type of data set: cell-based. Conditions: ht-29, 3 h.
Data set [11] can be described thus: Gastrointestinal toxicity in human HT-29 cells assessed as effect on endosomes at 5 uM incubated for 3 hrs by flow cytometry. Type of data set: cell-based. The settings on record: ht-29, 3 h.
The nature of data set [12]: Gastrointestinal toxicity in human HT-29 cells assessed as effect on membrane integrity at 5 uM incubated for 3 hrs by flow cytometry. Format: cell-based. Conditions: ht-29, 3 h.
Data set [13] is described as follows: Gastrointestinal toxicity in human HT-29 cells assessed as increase in mitochondrial membrane potential at 5 uM incubated for 3 hrs by flow cytometry. Type of data set: cell-based. Conditions: ht-29, 3 h.
A short description of data set [14]: Gastrointestinal toxicity in human HT-29 cells assessed as increase in mitochondrial number at 5 uM incubated for 3 hrs by flow cytometry. Type of data set: cell-based. Conditions: ht-29, 3 h.
Data set [15] in a line: Gastrointestinal toxicity in human HT-29 cells assessed as relocation from perinuclear position to cytoplasm at 5 uM incubated for 3 hrs by flow cytometry. Format: cell-based. Conditions: ht-29, 3 h.
Data set [16] is described as follows: Gastrointestinal toxicity in human HT-29 cells assessed as lysosomal membrane potential at 5 uM incubated for 3 hrs by flow cytometry. Format: cell-based. The settings on record: ht-29, 3 h.
For data set [17], the species on record is Homo sapiens. Description: Inhibition of beta tubulin assembly in human Colo-357 cells at 5 uM incubated for 3 hrs by anti-tubulin antibody based confocal microscopy. Type of data set: cell-based.
The subject of a further data set is HT-29. Description: Cytotoxic activity in human HT-29 cells assessed as reduction in cell viability at 0.1 to 100000 nM incubated for 24 hrs by MTT assay. Format: functional, cell-based.
For a further data set, the system named is PANC-1. Description: Cytotoxic activity in human PANC1 cells assessed as reduction in cell viability at 0.1 to 100000 nM incubated for 24 hrs by MTT assay. Format: functional, cell-based.
In data set [18] the test system is HEK293. Description: Cytotoxic activity in HEK293 cells assessed as reduction in cell viability at 0.1 to 100000 nM incubated for 24 hrs by MTT assay. Format: cell-based. Conditions: human, hek293, 24 h, 100 µM.
Data set [19] in a line: Gastrointestinal toxicity in human HT-29 cells assessed as mitochondrial stimulation at 5 uM incubated for 3 hrs by flow cytometry. Format: cell-based. Conditions: ht-29, 3 h.
Data set [20] deals with COLO357. In words: Induction of mitochondrial changes in human Colo-357 cells at 5 uM incubated for 3 hrs by flow cytometry. Format: functional, cell-based.

For orientation: IC50 means the midpoint of a concentration-inhibition curve.

Molecules are shown by their SMILES. Activity calls are given as the source filed them. The rule behind the calls is not given here.

With `COc1c(Br)c2c(c(OC)c1OC)-c1cc3cc(CO)[nH]c3cc1[C@@H](NC(C)=O)CC2`, the IC50 in the data set with HEK293 [1] stood at 160 nM; with COLO357 [2] (read-out: IC50), 3.5 nM; in the data set with MIA PaCa-2 (read-out: IC50) it was 10 nM. Further, the Activity in the data set on COLO357 [3] is 23%; in the data set with COLO357 [4] it was 16%; in the data set with COLO357 [5], 61%; with COLO357 [6], 0.3%. Moreover, the inhibition entry in the data set filed under Homo sapiens [7] is “Active”. For the same molecule, the “growth inhibition (GI)” value in the data set on COLO357 [8] is listed as 60 - 80%.

Consider `COc1cc2c(c(OC)c1OC)-c1ccc(OC)c(=O)cc1[C@@H](NC(C)=O)CC2` [COLCHICINE], for which the IC50 in the data set on HEK293 [1] came out at 32 nM; in the data set on COLO357 [2], 1.3 nM; with MIA PaCa-2, 1.3 nM. The Activity in the data set on COLO357 [3] is 12.4%; with COLO357 [4], 12.6%; in the data set on COLO357 [5], 75%; in the data set with COLO357 [6], 0.2%; in [9], “Non-Toxic”; in data set [10], “Non-Toxic”. Moreover, the Activity entry in data set [11] is reported as “Non-Toxic”; in [12] it was “Non-Toxic”; in [13], “Toxic”; in data set [14], “Toxic”; in data set [15], “Toxic”; in [16] it was “Toxic”. For the same molecule, in the data set listed under Homo sapiens [7], the inhibition result is “Active”. Besides, the “growth inhibition (GI)” value with COLO357 [8] is given as 60 - 80%.

As for `COc1c(Br)c2c(c(OC)c1OC)-c1cc3cc(CO)n(C)c3cc1[C@@H](NC(C)=O)CC2`, the values for the IC50 with HEK293 [1], in the data set on COLO357 [2] (read-out: IC50) and with MIA PaCa-2 (read-out: IC50) were 6.4 nM, 0.3 nM and less than 0.1 nM, respectively. The Activity in the data set with COLO357 [3] is reported as 25%; in the data set on COLO357 [4] it was 12%; in the data set with COLO357 [5], 63%; with COLO357 [6], 0.2%; in the data set with HEK293 [18], “Non-Toxic”; in [9], “Non-Toxic”. Moreover, the Activity entry in data set [10], in [11], in data set [12], in data set [19] and in [16] was “Non-Toxic” in each case. The inhibition entry in the data set listed under Homo sapiens [7] and in the data set listed under Homo sapiens [17] was “Active” each time. Further, the “growth inhibition (GI)” value in the data set on COLO357 [8] is 60 - 80%. Further, the result in the data set with HT-29 and in the data set with COLO357 [20] was Active. The result in the data set with PANC-1 was inactive.

For the origin of these results see ChEMBL document CHEMBL4130488, “Synthesis and biological evaluation of novel non-racemic indole-containing allocolchicinoids” (Eur J Med Chem, 2017).
